The source of these data is US20050013869A1, “Sustained release formulation for carbamates and a method therefor” (priority 2003, published 2005).

A word on the Tmax: it is the time at which the peak concentration occurs. Usually half-life stands for the time in which the quantity being followed falls by half.

Each structure is given as a SMILES string.

The nature of data set [1]: In vivo pharmacokinetic study after oral (intragastric) administration in rats. The note with it: rat, oral solution, 1 mg/kg. The method, then:
Naked physostigmine solution (1 mg/kg) or physostigmine-loaded RG 502 microparticles suspension (10% drug loading) were fed intragastrically into the overnight-fasted rats (weight-280g) via a rigid dosing gavage needle into the posterior of the rat pharynx, directly into the stomach. Immediately before administration of the tablets and solutions, a 300 μL sample of blood was taken at what was t=0 hrs (pre-dose), through the exposed catheter. Subsequent samples were drawn from the catheter at intervals over a period of 48 hours after drug administration. After each withdrawal, an equal volume of 0.9% normal saline was injected back into the blood stream to minimize loss of body fluid. Water and food were available ad libitum in the metabolic cages. Each 300 μl volume of blood was collected in heparinised microcentrifuge tubes and centrifuged under 3000 g for 5 minutes at 4° C. to obtain the plasma. All plasma samples were stored at −70° C. in fresh heparinised microcentrifuge tubes. Physostigmine is extracted immediately from it prior to analysis by high performance liquid chromatography (HPLC) described by Zhao et al (2003) Journal of Chromatography B 784- 323-329). The WinNonlin® Version 3.2 (Pharsight Corporation, USA) was used to calculate the pharmacokinetic parameters based on the non-compartment model.

The conditions of data set [2]: in vitro medium, 37° C., cited from earlier work.
For data set [3] the following is noted: K. Walter et al. (1995); cited from earlier work.

In the case of `CNC(=O)Oc1ccc2c(c1)[C@]1(C)CCN(C)[C@@H]1N2C` [physostigmine, Physostigmine], the Tmax in data set [1] (plasma) was determined as 40.8 min. For the same compound, the AUC in data set [1] (plasma, read-out: AUC (hr*μg/mL), Mean) stood at 0.77 µg·h/mL. Moreover, in data set [1] (plasma, read-out: Cmax (μg/mL), Mean), the Cmax stood at 0.57 µg/mL. Also, the half-life in data set [1] (plasma, read-out: Half life (hr), Mean (converted)) is 1.16 h. Further, in data set [1], the “Cl (mL/hr/kg), Mean” value is 998.86 mL/h/kg and the “Vd (mL/kg), Mean” value is 1584.37 mL/kg. Also, the physostigmine degraded result in data set [2] (in 6 days) is given as “about 40%”. For the same compound, in data set [2], the physostigmine degradation rate is reported as 7 % per day. For the same compound, in data set [3], the elimination half-life is 12 to 40 min.
